Earlier results, collected in patent US6911441B2, “Prolonged release pharmaceutical composition” (Akzo Nobel N.V., priority 2002, dated 2005).
≈ marks a conversion by molar mass, not a printed value.

Tested on: Mannheimia haemolytica

**Q.** Which MIC90 does the source give for `CO/N=C(\C(=O)N[C@@H]1C(=O)N2C(C(=O)[O-])=C(C[n+]3cccc4c3CCCC4)CS[C@H]12)c1csc(N)n1` [Cefquinome] here?
**A.** 0.25 µg/mL (≈ 0.473 µM)
